Reference: PubChem BioAssay (NCI)
“And” between values parts separate entries of the source, which are not always exact repeats. Equal entries are not always repeated.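 Cultured in 96-well plates, cells were exposed to test compound for 48 hours across five concentrations. GI50: concentration for 50% inhibition of growth. Definition used: TGI = concentration required for complete inhibition of growth.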

Tests used:
Assay in all cases: NCI-60 cell line screen, 48 h
[1] = system: SW-620 colon
[2] = system: HT29 colon
[3] = system: MOLT-4 leukemia
[4] = system: SF-295 CNS
[5] = system: OVCAR-3 ovarian
[6] = system: A498 renal
[7] = system: HCT-15 colon
[8] = system: U251 CNS
[9] = system: HOP-92 NSCLC
[10] = system: SK-MEL-2 melanoma

SMILES	GI50 [1]	TGI [1] [µM]	GI50 [2]	TGI [2]	GI50 [3]	TGI [3]	GI50 [4]	TGI [4]	GI50 [5]	TGI [5]	GI50 [6]	TGI [6]	GI50 [7]	TGI [7]	GI50 [8] [µM]	TGI [8]	GI50 [9]	TGI [9] [µM]	GI50 [10]	TGI [10]
COc1ccc(C(=S)N2CCN(c3cccc(Cl)c3)CC2)cc1	> 100 µM	> 100	> 100 µM	> 100 µM	> 100 µM	> 100 µM	95.9 µM	> 100 µM	> 100 µM	> 100 µM	> 100 µM	> 100 µM	> 100 µM	> 100 µM	> 100	> 100 µM	17.2 µM	> 100	> 100 µM	> 100 µM
O=C1NC2(CCCC2)C(=O)C12CCCC2	–	> 100	–	> 100 µM	–	> 100 µM	–	> 100 µM	–	> 100 µM	–	> 100 µM	–	> 100 µM	–	> 100 µM	–	> 100	–	> 100 µM
O=C(c1cccs1)c1c(C(F)(F)F)n([O-])c2ccccc2[n+]1=O	1.01 µM	5.94	1.08 µM	4.13 µM	2.32 µM	4.19 µM	0.941 µM	2.43 µM	0.744 µM	1.67 µM	0.79 µM	2.4 µM	0.432 µM	1.1 µM	1.07	2.79 µM	0.99 µM	2.28	2.21 µM	10.5 µM
Cc1nn(-c2ccc(F)cc2)c2ncnc(Nc3ccc(NC(=O)Nc4ccc(Cl)c(C(F)(F)F)c4)cc3)c12	2.93 µM	10.8	2.76 µM	9.82 µM	2.67 µM	22.2 µM	2.25 µM	6.17 µM	2.06 µM	5.79 µM	2.6 µM	7.93 µM	2.73 µM	12.5 µM	1.49	3.62 µM	1.73 µM	4.59	2.37 µM	5.66 µM
C=CC1=CSNN1	–	> 100	–	> 100 µM	–	> 100 µM	–	> 100 µM	–	> 100 µM	–	> 100 µM	–	> 100 µM	–	> 100 µM	–	> 100	–	> 100 µM
Fc1cccc(COc2ccc(Nc3ncncc3C#Cc3ccccc3)cc2Cl)c1	> 25 µM	> 25	> 25 µM	> 25 µM	> 25 µM	> 25 µM	> 25 µM	> 25 µM	> 25 µM	> 25 µM	> 17.1 µM	> 25 µM	> 25 µM	> 25 µM	> 25	> 25 µM	> 18.8 µM	> 25	> 25 µM	> 25 µM
CCOC(=O)C1=C(C)Nc2ccccc2S1	–	> 100	–	> 100 µM	–	> 100 µM	–	> 100 µM	–	> 100 µM	–	> 100 µM	–	> 100 µM	–	> 100 µM	–	> 100	–	> 100 µM
CSc1nc(SC)c2c(CN=[N+]=[N-])c(Br)n(Cc3ccccc3)c2n1	–	> 100	–	> 100 µM	–	> 100 µM	–	> 100 µM	–	> 100 µM	–	> 100 µM	–	> 100 µM	–	> 100 µM	–	83.8	–	> 100 µM
CC(=O)Nc1cccc(-n2c(=O)n(C3CC3)c(=O)c3c(Nc4ccc(I)cc4F)n(C)c(=O)c(C)c32)c1	< 0.01 µM and 0.00622 µM	> 48.8	< 0.01 µM and 0.00172 µM	15.9 µM and > 10 µM	6.96 µM and > 9.64 µM	> 100 µM	7.21 µM and > 10 µM	59.4 µM and > 10 µM	8.33 µM and > 10 µM	60.9 µM and > 10 µM	< 0.01 µM and 0.00596 µM	< 0.0306 µM and 0.0672 µM	0.65 µM and 0.864 µM	> 75.3 µM	0.401	32 µM and > 10 µM	< 0.01 µM and 0.011 µM	–	< 0.01 µM and 0.002 µM	0.0544 µM
CC(=O)OC1=C2CC3(C)OC(=O)CC(C)(C)C3=CC=C2C=C(C(C)C)C1=O (stereo not drawn)	–	1.14	–	2.73 µM	–	0.756 µM	–	3.14 µM	–	2.41 µM	–	2.99 µM	–	0.392 µM	–	2.99 µM	–	0.499	–	1.65 µM
O=c1cc(-c2cccc(F)c2)[nH]c2cc3c(cc12)OCO3	–	> 100	0.69 µM and 0.172 µM	3.23 µM and 0.705 µM	0.799 µM	75 µM and > 16.8 µM	0.141 µM	–	0.291 µM	–	–	> 9.41 µM	0.29 µM	12.1 µM and > 24.9 µM	0.268	9.58 µM and 49.1 µM	–	5.23	0.23 µM	2.9 µM and 23.6 µM
CN(C)CC(=O)N1CCC(c2ccc(NC(=O)c3ncc(C#N)[nH]3)c(C3=CCCCC3)c2)CC1	4.98 µM	18.7	2.8 µM	10.2 µM	3.72 µM	12.7 µM	3.75 µM	15.7 µM	15.7 µM	29.6 µM	9.71 µM	22.4 µM	2.71 µM	9.22 µM	4.66	16.9 µM	0.21 µM	2.74	6.83 µM	20.3 µM
O=C(CSc1nc2ccc([N+](=O)[O-])cc2[nH]1)Nc1ccc(F)c(Cl)c1	3.26 µM	15.7	3.14 µM	11.9 µM	2.7 µM	19.9 µM	1.81 µM	5.5 µM	2 µM	10.1 µM	1.11 µM	3.6 µM	2.84 µM	13 µM	2.5	12.3 µM	0.346 µM	2.72	2.22 µM	6.35 µM
COC1(C(=O)N2Cc3nc(Cl)nc(N[C@H](C)c4cc(N)cc(C(F)(F)F)c4)c3C2)CCOCC1	24.8 µM	> 86.3	18 µM	36.6 µM	9.05 µM	50.5 µM	12.5 µM	26.2 µM	16.3 µM	49 µM	11.2 µM	58.6 µM	23.2 µM	> 76.3 µM	14.4	37.7 µM	0.356 µM	21	16.7 µM	33.6 µM
Cc1ccc2c(C(C[N+](=O)[O-])c3cccs3)c(-c3ccccc3)[nH]c2c1 (stereo not drawn)	1.39 µM	8.12	1.3 µM	6.54 µM	1.53 µM	> 33.3 µM	1.15 µM	4.54 µM	1.24 µM	4.75 µM	1.05 µM	4.34 µM	1.44 µM	7.46 µM	1.72	7.59 µM	4.03 µM	9.24	2.24 µM	10.5 µM
CCOc1ccc(S(=O)(=O)/N=C2\C=C(SCC(=O)O)C(=O)c3ccccc32)cc1	3.31 µM	11.1	3.21 µM	13 µM	2.38 µM	6.06 µM	13 µM	30.2 µM	1.88 µM	12.2 µM	21.6 µM	37 µM	4.77 µM	17.2 µM	3.1	9.23 µM	2.61 µM	5.21	2.62 µM	5.8 µM
N#CC1(c2nc3ccccc3o2)C(=O)C(=O)N(C2C3CC4CC(C3)CC2C4)C(=O)C1=O (stereo not drawn)	–	> 100	–	> 100 µM	–	> 100 µM	–	> 100 µM	–	> 100 µM	–	> 100 µM	–	> 100 µM	–	> 100 µM	–	> 100	–	> 100 µM
CC1(C)N=C(N)N=C(N)N1c1ccc(CCCCc2ccc(S(=O)(=O)F)cc2)cc1	0.415 µM	15.4	0.4 µM	21.3 µM	1.41 µM	24.3 µM	5.71 µM	> 54.2 µM	3.88 µM	16.4 µM	3.81 µM	87.6 µM	3.16 µM	> 100 µM	0.467	15 µM	4.48 µM	27.8	4.91 µM	21.8 µM
CC(C)(C)OC(=O)NC(Cc1ccccc1)C(=O)OCN1C(=O)C2C3C=CC(C2C1=O)C1C2C(=O)N(COC(=O)C(Cc4ccccc4)NC(=O)OC(C)(C)C)C(=O)C2C31 (stereo not drawn)	–	> 100	–	> 100 µM	–	82.4 µM	–	> 100 µM	–	> 100 µM	–	> 90.9 µM	–	> 100 µM	–	> 100 µM	–	> 100	–	98.5 µM
Nc1n[nH]c2ccc([C@@H]3Nc4ccc5[nH]ncc5c4[C@H]4[C@H]5CCC(C5)[C@H]43)cc12	0.372 µM	> 100	0.35 µM	> 36.8 µM	0.407 µM	> 51.3 µM	0.302 µM	3.47 µM	0.23 µM	0.64 µM	0.168 µM	0.641 µM	0.407 µM	> 100 µM	0.435	> 100 µM	1.45 µM	14.9	1.24 µM	40.8 µM
Brc1cccc(-c2cc(-c3ccc4c(c3)OCCO4)[nH]n2)c1	0.785 µM	35.3	0.804 µM	27.4 µM	1.09 µM	101 µM	2.93 µM	32.7 µM	0.718 µM	2.27 µM	0.563 µM	3.89 µM	0.731 µM	30.6 µM	1.2	33.4 µM	4.31 µM	32.9	1.74 µM	69.2 µM
C#CCNC(=O)NC(CCCNC(=O)OCc1ccccc1)C(=O)OCc1ccccc1 (stereo not drawn)	–	> 100	–	> 100 µM	–	> 100 µM	–	> 100 µM	–	> 100 µM	–	> 100 µM	–	> 100 µM	–	> 100 µM	–	> 100	–	> 100 µM
CCn1c(-c2nonc2N)nc2c(C#CCN)ncc(OCCCN)c21	> 25 µM	> 25	> 25 µM	> 25 µM	> 25 µM	> 25 µM	> 25 µM	> 25 µM	> 25 µM	> 25 µM	> 18.6 µM	> 25 µM	> 25 µM	> 25 µM	> 25	> 25 µM	4.64 µM	> 25	> 25 µM	> 25 µM
NC(CO)Cc1cnc[nH]1 (stereo not drawn)	> 100 µM	> 100	> 100 µM	> 100 µM	> 100 µM	> 100 µM	> 100 µM	> 100 µM	> 100 µM	> 100 µM	> 100 µM	> 100 µM	> 100 µM	> 100 µM	> 100	> 100 µM	–	> 10	> 100 µM	> 100 µM
CN1CCN(Cc2ccc(C(=O)Nc3cncc(C#Cc4cnc(N)c5ccccc45)c3)cc2C(F)(F)F)CC1	1.78 µM	3.89	2.05 µM	5.02 µM	2.17 µM	5.31 µM	1.86 µM	3.46 µM	1.95 µM	3.71 µM	1.52 µM	3.73 µM	1.94 µM	4.6 µM	1.78	3.33 µM	2.42 µM	11.3	2.29 µM	5.2 µM
COc1ccc(C(=O)Nc2ncc(Cc3ccc(Cl)cc3)s2)cc1	0.0455 µM	> 100	0.0396 µM	> 100 µM	0.064 µM	> 100 µM	0.0561 µM	1.97 µM	0.0327 µM	0.159 µM	0.0216 µM	0.0848 µM	0.044 µM	> 100 µM	0.0691	> 100 µM	3.71 µM	> 100	0.532 µM	> 100 µM
N#CC(=C1SCS1)[N+](=O)[O-]	0.454 µM	6.47	0.336 µM	11.2 µM	0.639 µM	6.5 µM	4.82 µM	44.4 µM	1.13 µM	3.92 µM	2.31 µM	12.7 µM	0.853 µM	9.56 µM	2.37	10.8 µM	0.365 µM	10.4	6.7 µM	20.7 µM
CCCCCCCCCCCCCC(=S)NCCCC[C@H](NC(=O)OCc1ccccc1)C(=O)Nc1ccccc1	4.12 µM	> 100	5.25 µM	> 100 µM	3.91 µM	> 100 µM	3.4 µM	72.1 µM	3.52 µM	> 100 µM	3.75 µM	> 100 µM	3.52 µM	> 100 µM	3.21	> 100 µM	2.3 µM	8.25	3.48 µM	26.9 µM
